Measurements from ChEMBL document CHEMBL1157941, “Sapinmusaponins F-J, bioactive tirucallane-type saponins from the galls of Sapindus mukorossi” (J Nat Prod, 2006).

Tests used:
Platelet [1] = assay: Inhibition of […]-induced platelet aggregation in citreated rabbit platelet-rich plasma by turbidimetric method; format: functional; settings: Oryctolagus cuniculus
Platelet [2] = assay: Inhibition of thrombin-induced platelet aggregation in citreated rabbit platelet-rich plasma by turbidimetric method; format: functional; settings: Oryctolagus cuniculus
Platelet [3] = assay: Inhibition of arachidonic acid-induced platelet aggregation in citreated rabbit platelet-rich plasma by turbidimetric method; format: functional; settings: Oryctolagus cuniculus
[4] = Cytotoxicity against rabbit platelet assessed as LDH release; format: cell-based, Oryctolagus cuniculus; design: concentration or dose not given beside the values
Platelet [5] = assay: Inhibition of U46619-induced platelet aggregation in citreated rabbit platelet-rich plasma by turbidimetric method; format: functional; settings: Oryctolagus cuniculus
[6] = Cytotoxicity against human Raji cells assessed as cell viability at 1000 molar ratio by trypan blue assay; format: cell-based; settings: read-out: Activity
Raji [7] = assay: Inhibition of 12-O-tetradecanoylphorbol-13-acetate induced EBV-early antigen activation in human Raji cells assessed as EA activation at 500 molar ratio after 48 hrs relative to TPA; format: cell-based; design: scale not given: the % may be the effect or the level left; settings: human gammaherpesvirus 4
Raji [8] = assay: Inhibition of 12-O-tetradecanoylphorbol-13-acetate induced EBV-early antigen activation in human Raji cells assessed as EA activation at 10 molar ratio after 48 hrs relative to TPA; format: cell-based; design: scale not given: the % may be the effect or the level left; settings: human gammaherpesvirus 4
Raji [9] = assay: Inhibition of 12-O-tetradecanoylphorbol-13-acetate induced EBV-early antigen activation in human Raji cells assessed as EA activation at 1000 molar ratio after 48 hrs relative to TPA; format: cell-based; design: scale not given: the % may be the effect or the level left; settings: human gammaherpesvirus 4
Raji [10] = assay: Inhibition of 12-O-tetradecanoylphorbol-13-acetate induced EBV-early antigen activation in human Raji cells assessed as EA activation at 100 molar ratio after 48 hrs relative to TPA; format: cell-based; design: scale not given: the % may be the effect or the level left; settings: human gammaherpesvirus 4

Row | Structure (SMILES) | IC50 (Platelet [1]) [µM] | IC50 (Platelet [2]) [µM] | IC50 (Platelet [3]) [µM] | Activity [4] [%] | IC50 (Platelet [5]) [µM] | viability at 1000 molar ratio [6] [%] | Activity (Raji [7]) [%] | Activity (Raji [8]) [%] | Activity (Raji [9]) [%] | Activity (Raji [10]) [%]
1 | CC(C)=CCC(O)[C@@](C)(O)[C@H]1CC[C@]2(C)[C@@H]1CC[C@@H]1[C@@]3(C)CC[C@H](O[C@@H]4O[C@H](CO)[C@@H](O)[C@H](O)[C@H]4O[C@@H]4O[C@@H](C)[C@H](O)[C@@H](O)[C@H]4O)C(C)(C)[C@@H]3C[C@H](O)[C@]12C (some centres undefined) [SAPINMUSAPONIN A] | > 100 | > 100 | > 100 | 62.3 | > 100 | – | – | – | – | –
2 | CC(C)=CC(O)C(O)[C@@](C)(O)[C@H]1CC[C@]2(C)[C@@H]1CC[C@@H]1[C@@]3(C)CC[C@H](O[C@@H]4O[C@H](CO)[C@@H](O)[C@H](O)[C@H]4O[C@@H]4O[C@@H](C)[C@H](O)[C@@H](O)[C@H]4O)C(C)(C)[C@@H]3C[C@H](O)[C@]12C (some centres undefined) [SAPINMUSAPONIN B] | > 100 | > 100 | > 100 | 62.3 | > 100 | – | – | – | – | –
3 | C[C@@H]1O[C@@H](O[C@H]2[C@H](O[C@H]3CC[C@]4(C)[C@H]5CC[C@@H]6[C@@H]([C@](C)(O)C(O)/C=C/C(C)(C)O)CC[C@@]6(C)[C@]5(C)[C@@H](O)C[C@H]4C3(C)C)O[C@H](CO)[C@@H](O)[C@@H]2O)[C@H](O)[C@H](O)[C@H]1O (some centres undefined) [SAPINMUSAPONIN C] | > 100 | > 100 | > 100 | 62.3 | > 100 | – | – | – | – | –
4 | COC(C)(C)/C=C/C(O)[C@@](C)(O)[C@H]1CC[C@]2(C)[C@@H]1CC[C@@H]1[C@@]3(C)CC[C@H](O[C@@H]4O[C@H](CO)[C@@H](O)[C@H](O)[C@H]4O[C@@H]4O[C@@H](C)[C@H](O)[C@@H](O)[C@H]4O)C(C)(C)[C@@H]3C[C@H](O)[C@]12C (some centres undefined) [SAPINMUSAPONIN D] | > 100 | > 100 | > 100 | 62.3 | > 100 | – | – | – | – | –
5 | CO[C@H]1O[C@H](C=C(C)C)C[C@H]1[C@@H]1CC[C@]2(C)C3=CC[C@H]4C(C)(C)[C@@H](O[C@@H]5O[C@H](CO[C@@H]6O[C@@H](C)[C@H](O)[C@@H](O)[C@H]6O)[C@@H](O)[C@H](O)[C@H]5O)CC[C@]4(C)[C@H]3CC[C@@]12C [SAPINMUSAPONIN F] | 7.7 | 8.4 | 6.7 | < 10 | 3.4 | 60 | 53.6 | 100 | 9.1 | 82.6
6 | CO[C@@H]1O[C@H](C=C(C)C)C[C@H]1[C@@H]1CC[C@]2(C)C3=CC[C@H]4C(C)(C)[C@@H](O[C@@H]5O[C@H](CO[C@@H]6O[C@@H](C)[C@H](O)[C@@H](O)[C@H]6O)[C@@H](O)[C@H](O)[C@H]5O)CC[C@]4(C)[C@H]3CC[C@@]12C [SAPINMUSAPONIN G] | 13.5 | 8.9 | 12.5 | < 10 | 5.4 | 60 | 53.9 | 100 | 9.7 | 83.7
7 | CO[C@@H]1O[C@H](C=C(C)C)C[C@H]1[C@@H]1CC[C@]2(C)C3=CC[C@H]4C(C)(C)[C@@H](O[C@@H]5O[C@H](CO)[C@@H](O)[C@H](O)[C@H]5O[C@@H]5O[C@@H](C)[C@H](O)[C@@H](O)[C@H]5O)CC[C@]4(C)[C@H]3CC[C@@]12C [SAPINMUSAPONIN H] | 4.6 | > 100 | 71.5 | < 10 | 16.3 | 60 | 54.4 | 100 | 11 | 83.7
8 | CO[C@H]1O[C@H](C=C(C)C)C[C@H]1[C@@H]1CC[C@]2(C)C3=CC[C@H]4C(C)(C)[C@@H](O[C@@H]5O[C@H](CO[C@@H]6O[C@@H](C)[C@H](O)[C@@H](O)[C@H]6O)[C@@H](O)[C@H](O)[C@H]5O[C@@H]5O[C@@H](C)[C@H](O)[C@@H](O)[C@H]5O)CC[C@]4(C)[C@H]3CC[C@@]12C [SAPINMUSAPONIN I] | 11.8 | 41.4 | 2.3 | < 10 | – | 60 | 60.5 | 100 | 14.3 | 82.6
